Source: patent publication US20250326738A1, “MALT1 Modulators and Uses Thereof” (Rarefied Biosciences, Inc., priority 2022, published 2025)

Key:
Jurkat IL-2 = Jurkat IL-2 assay (IL-2 inhibition by ELISA after anti-CD3/28/2 stimulation); assay type: cell-based; details: Homo sapiens; Jurkat clone E6.1, IL-2 in supernatant, 30 min pre-incubation, anti-CD3/28/2 stimulation 24 hours; mean if tested more than once
Description: Inhibition was determined in a cell-based assay using Jurkat (ATCC, clone E6.1), an immortalized T-cell line, exposed to a dose response of compound and assessed for viability, and IL-2 inhibition by ELISA. Cells were cultured in RPMI/10% FBS (Invitrogen 11875093, Atlanta Biologicals S12450H), maintained below 3E6/mL and only used in assays while below passage 25. Compounds were stamped by ECHO onto 384w plates (PerkinElmer Culturplate, 6007680). The cells were plated in fresh media on top of compound and incubated for 30 minutes before stimulation with soluble anti-CD3/28/2 (Stemcell, 10970) for 24 hours. Supernatant was collected and assessed for IL-2 (MSD, 384w, L21SA-1). To assess viability of cells treated with compound, cells were lysed with CTG reagent (Promega, G7570), and measured by luminometer. […] IC50s calculated using 4-parameter fit in GraphPad Prism.
“N/A” indicates not tested. For a compound that was tested in more than one experiment, the result shown represents the mean value.

full length MALT1 = target: T1, full length MALT1 (Homo sapiens, UniProt Q9UDY8); assay: MALT1 biochemical assay (fluorogenic peptide substrate cleavage); details: full length MALT1, 15 nM enzyme, 30 μM peptide substrate, 30 min pre-incubation, 60 min reaction; mean if tested more than once
T1 construct: measuring enzymatic activity of full length MALT1 at varying concentrations of compound
T1 sequence (Q9UDY8 1-824): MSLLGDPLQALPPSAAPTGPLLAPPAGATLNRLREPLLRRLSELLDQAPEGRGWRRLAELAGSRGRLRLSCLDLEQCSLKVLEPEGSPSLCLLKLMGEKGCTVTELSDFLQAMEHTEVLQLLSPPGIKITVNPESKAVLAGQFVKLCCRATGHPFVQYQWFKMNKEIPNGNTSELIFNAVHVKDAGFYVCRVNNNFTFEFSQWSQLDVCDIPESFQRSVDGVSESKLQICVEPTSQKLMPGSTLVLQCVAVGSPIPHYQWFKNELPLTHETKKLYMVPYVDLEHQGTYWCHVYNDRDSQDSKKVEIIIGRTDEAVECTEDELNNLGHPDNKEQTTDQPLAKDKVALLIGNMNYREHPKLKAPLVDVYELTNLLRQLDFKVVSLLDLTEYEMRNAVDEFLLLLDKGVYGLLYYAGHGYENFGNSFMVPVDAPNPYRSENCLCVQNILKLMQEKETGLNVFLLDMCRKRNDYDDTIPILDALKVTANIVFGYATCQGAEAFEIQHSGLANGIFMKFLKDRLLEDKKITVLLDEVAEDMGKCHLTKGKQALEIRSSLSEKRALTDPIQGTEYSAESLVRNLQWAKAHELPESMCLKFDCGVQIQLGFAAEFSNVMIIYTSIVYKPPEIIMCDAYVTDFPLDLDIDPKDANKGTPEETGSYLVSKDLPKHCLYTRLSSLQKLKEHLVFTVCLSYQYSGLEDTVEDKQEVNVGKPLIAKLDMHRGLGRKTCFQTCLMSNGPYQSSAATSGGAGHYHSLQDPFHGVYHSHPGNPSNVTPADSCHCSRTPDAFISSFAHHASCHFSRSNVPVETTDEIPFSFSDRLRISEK
Description: Inhibitor potency was evaluated by measuring enzymatic activity of full length MALT1 at varying concentrations of compound. The enzymatic assay consists of a single substrate reaction that monitors the release of a fluorescent dye upon cleavage of the peptide substrate. […] The assay buffer consists of 50 mM Hepes, pH 7.5, 0.8 M sodium citrate, 1 mM DTT, 0.004% tween-20, and 0.005% bovine serum albumin (BSA). […] The reaction was quenched after 60 minutes with the addition of iodoacetate at a final concentration of 10 mM. Total fluorescence was measured using an Envision (PerkinElmer) with fluorescence excitation at 485 nm and emission at 520 nm.
The reaction was initiated with the addition of 10 μL of peptide substrate. […] IC50 values were calculated by fitting the concentration-response curves to a four-parameter logistic equation in GraphPad Prism.
“N/A” indicates not tested.

## CN(C(=O)C1CCS(=O)(=O)CC1)[C@@H](c1ccc(Nc2cnn(-c3ccncn3)c2C(F)(F)F)cc1)C(F)(F)F [Compound 1.20]
Jurkat IL-2
  IC50: < 100 nM
Full length MALT1
  IC50: < 100 nM

## CN(C(=O)C1CCS(=O)(=O)CC1)[C@@H](c1ccc(Nc2cnn(-c3cccnn3)c2C(F)(F)F)cc1)C(F)(F)F [Compound 1.21]
Jurkat IL-2
  IC50: < 100 nM
Full length MALT1
  IC50: < 100 nM

## CN(C(=O)C1CCS(=O)(=O)CC1)[C@@H](c1ccc(Nc2cnn(-c3ccnnc3)c2C(F)(F)F)cc1)C(F)(F)F [Compound 1.22]
Jurkat IL-2
  IC50: 100 to 1000 nM
Full length MALT1
  IC50: < 100 nM

## COC(C)c1c(Nc2ccc([C@H](N(C)C(=O)C3CCS(=O)(=O)CC3)C(F)(F)F)cc2)cnn1-c1cccnc1 (some centres unmarked) [Compound 1.23]
Jurkat IL-2
  IC50: 100 to 1000 nM
Full length MALT1
  IC50: 100 to 1000 nM

## CC(O)c1c(Nc2ccc([C@H](N(C)C(=O)C3CCS(=O)(=O)CC3)C(F)(F)F)cc2)cnn1-c1cccnc1 (some centres unmarked) [Compound 1.24]
Jurkat IL-2
  IC50: 100 to 1000 nM
Full length MALT1
  IC50: < 100 nM

## CC(=O)N1CCC(C(=O)N(C)[C@@H](c2ccc(Nc3cnn(-c4ccccc4)c3C(F)(F)F)cc2)C(F)(F)F)CC1 [Compound 1.25]
Jurkat IL-2
  IC50: < 100 nM
Full length MALT1
  IC50: 100 to 1000 nM

## CC(=O)N1CCC(C(=O)N(C)[C@@H](c2ccc(Nc3cnn(-c4ccccc4)c3C(C)C)cc2)C(F)(F)F)CC1 [Compound 1.26]
Jurkat IL-2
  IC50: 100 to 1000 nM
Full length MALT1
  IC50: 100 to 1000 nM

## CC(=O)N1CCC(C(=O)N(C)[C@@H](c2ccc(Nc3cnn(-c4cccnc4)c3C(F)(F)F)cc2)C(F)(F)F)CC1 [Compound 1.27]
Jurkat IL-2
  IC50: < 100 nM
Full length MALT1
  IC50: < 100 nM

## CC(=O)N1CCC(C(=O)N(C)[C@@H](c2ccc(Nc3cnn(-c4cccc(C#N)c4)c3C(F)(F)F)cc2)C(F)(F)F)CC1 [Compound 1.28]
Jurkat IL-2
  IC50: < 100 nM
Full length MALT1
  IC50: < 100 nM

## CC(=O)N1CCC(C(=O)N(C)[C@@H](c2ccc(Nc3cnn(-c4ccccn4)c3C(F)(F)F)cc2)C(F)(F)F)CC1 [Compound 1.29]
Jurkat IL-2
  IC50: < 100 nM
Full length MALT1
  IC50: 100 to 1000 nM

## CO[C@@H](C)c1c(Nc2ccc([C@H](N(C)C(=O)C3CCN(C(C)=O)CC3)C(F)(F)F)cc2)cnn1-c1ccccc1 [Compound 1.31]
Jurkat IL-2
  IC50: 100 to 1000 nM
Full length MALT1
  IC50: 100 to 1000 nM

## CO[C@@H](C)c1c(Nc2ccc([C@H](N(C)C(=O)C3CCN(C(C)=O)CC3)C(F)(F)F)cc2)cnn1-c1ccccn1 [Compound 1.32]
Jurkat IL-2
  IC50: 100 to 1000 nM
Full length MALT1
  IC50: < 100 nM

## CO[C@@H](C)c1c(Nc2ccc([C@H](N(C)C(=O)C3CCN(C(C)=O)CC3)C(F)(F)F)cc2)cnn1-c1ccncc1 [Compound 1.33]
Jurkat IL-2
  IC50: 100 to 1000 nM
Full length MALT1
  IC50: 100 to 1000 nM

## CO[C@@H](C)c1c(Nc2ccc([C@H](N(C)C(=O)C3CCN(C(C)=O)CC3)C(F)(F)F)cc2)cnn1-c1cccnc1 [Compound 1.34]
Jurkat IL-2
  IC50: 100 to 1000 nM
Full length MALT1
  IC50: 100 to 1000 nM

## CC(=O)N1CC(C(=O)N(C)[C@@H](c2ccc(Nc3cnn(-c4cccc(C#N)c4)c3C(F)(F)F)cc2)C(F)(F)F)C1 [Compound 1.35]
Jurkat IL-2
  IC50: < 100 nM
Full length MALT1
  IC50: 100 to 1000 nM

## CC(=O)N1CC(C(=O)N(C)[C@@H](c2ccc(Nc3cnn(-c4cccnc4)c3C(F)(F)F)cc2)C(F)(F)F)C1 [Compound 1.36]
Jurkat IL-2
  IC50: < 100 nM
Full length MALT1
  IC50: < 100 nM

## CC(=O)N1CC(C(=O)N(C)[C@@H](c2ccc(Nc3cnn(-c4ccccn4)c3C(F)(F)F)cc2)C(F)(F)F)C1 [Compound 1.37]
Jurkat IL-2
  IC50: < 100 nM
Full length MALT1
  IC50: < 100 nM

## CO[C@@H](C)c1c(Nc2ccc([C@H](N(C)C(=O)C3CN(C(C)=O)C3)C(F)(F)F)cc2)cnn1-c1ccccc1 [Compound 1.38]
Jurkat IL-2
  IC50: 100 to 1000 nM
Full length MALT1
  IC50: 100 to 1000 nM

## CC(=O)N1CC(C(=O)N(C)[C@@H](c2ccc(Nc3cnn(-c4cccc(C#N)c4)c3C3CC3)cc2)C(F)(F)F)C1 [Compound 1.39]
Jurkat IL-2
  IC50: 100 to 1000 nM
Full length MALT1
  IC50: 100 to 1000 nM

## CC(=O)N1CC(C(=O)N(C)[C@@H](c2ccc(Nc3cnn(-c4ccccn4)c3C3CC3)cc2)C(F)(F)F)C1 [Compound 1.40]
Jurkat IL-2
  IC50: 100 to 1000 nM
Full length MALT1
  IC50: < 100 nM

## CN(C(=O)[C@H]1CC[C@H](C(=O)O)CC1)[C@@H](c1ccc(Nc2cnn(-c3ccccc3)c2C(F)(F)F)cc1)C(F)(F)F [Compound 2.1, (1S,4r)-4-(methyl((S)-2,2,2-trifluoro-1-(4-((1-phenyl-5-(trifluoromethyl)-1H-pyrazol-4-yl)amino)phenyl)ethyl)carbamoyl)cyclohexane-1-carboxylic acid]
Jurkat IL-2
  IC50: < 100 nM
Full length MALT1
  IC50: < 100 nM

## CN(C(=O)[C@H]1CC[C@H](C(=O)O)CC1)[C@@H](c1ccc(Nc2cnn(-c3ccncc3)c2C(F)(F)F)cc1)C(F)(F)F [Compound 2.2]
Jurkat IL-2
  IC50: 100 to 1000 nM
Full length MALT1
  IC50: 100 to 1000 nM

## CN(C(=O)[C@H]1CC[C@H](C(=O)O)CC1)[C@@H](c1ccc(Nc2cnn(-c3cccnc3)c2C(F)(F)F)cc1)C(F)(F)F [Compound 2.3]
Jurkat IL-2
  IC50: < 100 nM
Full length MALT1
  IC50: 100 to 1000 nM

## CN(C(=O)[C@H]1CC[C@H](C(=O)O)CC1)[C@@H](c1ccc(Nc2cnn(-c3ccccn3)c2C(F)(F)F)cc1)C(F)(F)F [Compound 2.4]
Jurkat IL-2
  IC50: < 100 nM
Full length MALT1
  IC50: < 100 nM

## CO[C@@H](C)c1c(Nc2ccc([C@H](N(C)C(=O)[C@H]3CC[C@H](C(=O)O)CC3)C(F)(F)F)cc2)cnn1-c1ccccn1 [Compound 2.5]
Jurkat IL-2
  IC50: 100 to 1000 nM
Full length MALT1
  IC50: < 100 nM

## CO[C@@H](C)c1c(Nc2ccc([C@H](N(C)C(=O)[C@H]3CC[C@H](C(=O)O)CC3)C(F)(F)F)cc2)cnn1-c1ccccc1 [Compound 2.6]
Jurkat IL-2
  IC50: 100 to 1000 nM
Full length MALT1
  IC50: 100 to 1000 nM

## CO[C@@H](C)c1c(Nc2ccc([C@H](N(C)C(=O)[C@H]3CC[C@H](C(=O)O)CC3)C(F)(F)F)cc2)cnn1-c1ccncc1 [Compound 2.7]
Jurkat IL-2
  IC50: > 1000 nM
Full length MALT1
  IC50: 100 to 1000 nM

## CO[C@@H](C)c1c(Nc2ccc([C@H](N(C)C(=O)[C@H]3CC[C@H](C(=O)O)CC3)C(F)(F)F)cc2)cnn1-c1cccnc1 [Compound 2.8]
Jurkat IL-2
  IC50: 100 to 1000 nM
Full length MALT1
  IC50: 100 to 1000 nM

## CN(C(=O)[C@H]1CC[C@H](C(=O)O)CC1)[C@@H](c1ccc(Nc2cnn(-c3cccnn3)c2C(F)(F)F)cc1)C(F)(F)F [Compound 2.9]
Jurkat IL-2
  IC50: < 100 nM
Full length MALT1
  IC50: < 100 nM

## CO[C@@H](C)c1c(Nc2ccc([C@H](N(C)C(=O)[C@H]3CC[C@H](C(=O)O)CC3)C(F)(F)F)cc2)cnn1-c1cccc(C#N)c1 [Compound 2.10]
Jurkat IL-2
  IC50: 100 to 1000 nM
Full length MALT1
  IC50: < 100 nM

## CN(C(=O)[C@H]1C[C@H](C(=O)O)C1)[C@@H](c1ccc(Nc2cnn(-c3ccccn3)c2C(F)(F)F)cc1)C(F)(F)F [Compound 2.11, (1r,3r)-3-{methyl[(1S)-2,2,2-trifluoro-1-(4-{[1-(pyridin-2-yl)-5-(trifluoromethyl)-1H-pyrazol-4-yl]amino}phenyl)ethyl]carbamoyl}cyclobutane-1-carboxylic Acid Amine]
Jurkat IL-2
  IC50: < 100 nM
Full length MALT1
  IC50: < 100 nM

## CN(C(=O)[C@H]1C[C@@H](C(=O)O)C1)[C@@H](c1ccc(Nc2cnn(-c3ccccn3)c2C(F)(F)F)cc1)C(F)(F)F [Compound 2.12, (1s,3s)-3-{methyl[(1S)-2,2,2-trifluoro-1-(4-{[1-(pyridin-2-yl)-5-(trifluoromethyl)-1H-pyrazol-4-yl]amino}phenyl)ethyl]carbamoyl}cyclobutane-1-carboxylic Acid Amine]
Jurkat IL-2
  IC50: 100 to 1000 nM
Full length MALT1
  IC50: < 100 nM

## CN(C(=O)[C@H]1C[C@H](C(=O)O)C1)[C@@H](c1ccc(Nc2cnn(-c3ccccc3)c2C(F)(F)F)cc1)C(F)(F)F [Compound 2.13]
Jurkat IL-2
  IC50: < 100 nM
Full length MALT1
  IC50: < 100 nM

## CN(C(=O)[C@H]1C[C@@H](C(=O)O)C1)[C@@H](c1ccc(Nc2cnn(-c3ccccc3)c2C(F)(F)F)cc1)C(F)(F)F [Compound 2.14]
Jurkat IL-2
  IC50: 100 to 1000 nM
Full length MALT1
  IC50: < 100 nM
